The compounds below were run against T1, Full-length human PRMT3 (Homo sapiens, UniProt O60678) (assay: PRMT3 biochemical assay (3H-SAM Flashplate, peptide substrate)).
T1 construct: GST-tagged PRMT3; made in house; host or cells: E. coli BL21(DE3) Gold (pGEX-KG)
T1 sequence (O60678 with tags, fused parts or gaps): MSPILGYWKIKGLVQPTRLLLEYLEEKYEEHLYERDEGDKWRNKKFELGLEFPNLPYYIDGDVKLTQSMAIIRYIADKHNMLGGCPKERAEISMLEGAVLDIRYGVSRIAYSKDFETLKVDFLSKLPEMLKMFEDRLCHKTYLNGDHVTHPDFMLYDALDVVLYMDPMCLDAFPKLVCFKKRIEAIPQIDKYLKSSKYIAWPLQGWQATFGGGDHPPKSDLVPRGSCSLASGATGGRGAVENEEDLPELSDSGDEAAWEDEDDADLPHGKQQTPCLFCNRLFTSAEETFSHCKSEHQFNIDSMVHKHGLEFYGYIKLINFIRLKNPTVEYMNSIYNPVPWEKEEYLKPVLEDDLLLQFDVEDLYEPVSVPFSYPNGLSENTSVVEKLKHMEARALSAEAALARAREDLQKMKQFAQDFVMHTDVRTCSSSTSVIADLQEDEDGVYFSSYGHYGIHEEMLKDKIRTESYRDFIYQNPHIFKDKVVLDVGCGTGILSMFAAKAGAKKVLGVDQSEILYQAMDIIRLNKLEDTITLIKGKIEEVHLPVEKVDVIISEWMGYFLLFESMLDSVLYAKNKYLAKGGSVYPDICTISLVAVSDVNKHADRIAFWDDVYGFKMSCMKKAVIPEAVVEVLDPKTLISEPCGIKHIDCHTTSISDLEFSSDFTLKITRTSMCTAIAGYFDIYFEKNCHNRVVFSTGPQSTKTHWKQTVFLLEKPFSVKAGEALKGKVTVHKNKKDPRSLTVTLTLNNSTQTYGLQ
Outline: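 GST-tagged full-length PRMT3 (0.5 nM, E. coli-expressed) preincubated 30 min at room temperature with compound, then 330 nM biotinylated peptide, 100 nM 3H-SAM plus 1.8 uM SAM in Bicine pH 7.6, 2% DMSO.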
In the case of `CNCCN(C)Cc1cn(C2CC2)nc1-c1ccc(F)cc1` [Compound 13], the IC50 is reported as over 10 µM.
With `CNCCN(C)Cc1cnn(C2CC2)c1-c1ccc(F)cc1` [Compound 14] the IC50 was over 10 µM.
In the case of `CNCCN(C)Cc1cn(C(C)C)nc1-c1ccc(F)cc1` [Compound 15], the IC50 is reported as over 10 µM.
`CNCCN(C)Cc1cnn(C(C)C)c1-c1ccc(F)cc1` [Compound 16] gave an IC50 of over 10 µM.
`CNCCN(C)Cc1cn[nH]c1-c1ccc(C#N)cc1` [Compound 17] showed an IC50 of 1.01 to 3 µM.
For `CNCCN(C)Cc1cn[nH]c1-c1cc(F)cc(F)c1` [Compound 18], the IC50 was 3.01 to 10 µM.
With `CCCc1ccc(-c2n[nH]cc2CN(C)CCNC)cc1` [Compound 20] the IC50 was 3.01 to 10 µM.
Work on `CNCCN(C)Cc1c[nH]nc1-c1cccc([N+](=O)[O-])c1` [Compound 21] yielded an IC50 of 1.01 to 3 µM.
With `CNCCN(C)Cc1c[nH]nc1-c1cccc(C#N)c1` [Compound 22] the IC50 was over 10 µM.
Work on `CNCCN(C)Cc1c[nH]nc1-c1ccccc1OC` [Compound 23] yielded an IC50 of over 10 µM.
`CNCCN(C)Cc1c[nH]nc1-c1cccc(OC)c1` [Compound 24] gave an IC50 of over 10 µM.
Work on `CNCCN(C)Cc1c[nH]nc1-c1ccc(OC)cc1` [Compound 25] yielded an IC50 of over 10 µM.
For `CNCCN(C)Cc1c[nH]nc1-c1cccc(O)c1` [Compound 26], the IC50 was over 10 µM.
`CNCCN(C)Cc1c[nH]nc1-c1ccc(O)cc1` [Compound 27] was tested, and the IC50 was over 10 µM.
`CNCCN(C)Cc1c[nH]nc1-c1ccc(CO)cc1` [Compound 28] was tested, and the IC50 was 0.101 to 1 µM.
For `CNCCN(C)Cc1c[nH]nc1-c1ccc(C)cc1C` [Compound 29], the IC50 was over 10 µM.
Work on `CNCCN(C)Cc1cn(CCCC(O)CO)nc1-c1ccc(F)cc1` (centres unmarked) [Compound 30] yielded an IC50 of over 10 µM.
`CNCCN(C)Cc1cnn(CCCC(O)CO)c1-c1ccc(F)cc1` (centres unmarked) [Compound 31] was tested, and the IC50 was over 10 µM.
In the case of `CNCCN(C)Cc1c[nH]nc1-c1ccc(N)cc1` [Compound 33], the IC50 is reported as 1.01 to 3 µM.
In the case of `CNCCN(C)Cc1c[nH]nc1-c1ccc(Oc2ccccc2)cc1` [Compound 37], the IC50 is reported as 0.101 to 1 µM.
`CNCCN(C)Cc1c[nH]nc1-c1ccccc1C(F)(F)F` [Compound 38] gave an IC50 of over 10 µM.
`CNCCN(C)Cc1c[nH]nc1-c1ccccc1OC(F)(F)F` [Compound 40] gave an IC50 of over 10 µM.
`CCNC(=O)c1cccc(-c2n[nH]cc2CN(C)CCNC)c1` [Compound 43] showed an IC50 of over 10 µM.
